The values below come from PMC8391236, “Effect of Pterostilbene, a Natural Derivative of Resveratrol, in the Treatment of Colorectal Cancer through Top1/Tdp1-Mediated DNA Repair Pathway” (Cancers, 2021).

One assay deals with Tdp1-over CL187 cells. In words: Apoptosis by flow cytometry. Format: cell-based, Human. The following applies: 48 h. How it is done: (§1) Exponentially growing CL187 cells were seeded in 6-well plates (1.2 × 10^6 cells/well) until a well was filled with cells. The RE or PTE at various concentrations were added separately into plate wells and incubated with cells for 48 h. The incubated cells were collected and treated by Annexin V-FITC/PI Apoptosis Detection Kit. The stained cells were analyzed with a flow cytometer (Becton-Dickinson, Franklin Lakes, NJ, USA), and data analyses were performed with BD Cell Quest^TM pro 6.0..

Another assay deals with siRNA-Tdp1 CL187 cells. The experiment in a line: Apoptosis by flow cytometry. Format: cell-based, Human. The following applies: 48 h. How it is done:
as §1
(Flow cytometry measures light scatter and fluorescence of single cells or particles in a stream.)

The next assay has as its system siRNA-Top1 CL187 cells. In words: Apoptosis by flow cytometry. Type of assay: cell-based, Human. The settings on record: 48 h. Here is the method:
as §1

In assay [1] the target is T1, Top1 (Homo sapiens, UniProt P11387).
T1 construct: purchased TopoGEN, Buena Vista, CO, USA
T1 sequence (P11387 1-765): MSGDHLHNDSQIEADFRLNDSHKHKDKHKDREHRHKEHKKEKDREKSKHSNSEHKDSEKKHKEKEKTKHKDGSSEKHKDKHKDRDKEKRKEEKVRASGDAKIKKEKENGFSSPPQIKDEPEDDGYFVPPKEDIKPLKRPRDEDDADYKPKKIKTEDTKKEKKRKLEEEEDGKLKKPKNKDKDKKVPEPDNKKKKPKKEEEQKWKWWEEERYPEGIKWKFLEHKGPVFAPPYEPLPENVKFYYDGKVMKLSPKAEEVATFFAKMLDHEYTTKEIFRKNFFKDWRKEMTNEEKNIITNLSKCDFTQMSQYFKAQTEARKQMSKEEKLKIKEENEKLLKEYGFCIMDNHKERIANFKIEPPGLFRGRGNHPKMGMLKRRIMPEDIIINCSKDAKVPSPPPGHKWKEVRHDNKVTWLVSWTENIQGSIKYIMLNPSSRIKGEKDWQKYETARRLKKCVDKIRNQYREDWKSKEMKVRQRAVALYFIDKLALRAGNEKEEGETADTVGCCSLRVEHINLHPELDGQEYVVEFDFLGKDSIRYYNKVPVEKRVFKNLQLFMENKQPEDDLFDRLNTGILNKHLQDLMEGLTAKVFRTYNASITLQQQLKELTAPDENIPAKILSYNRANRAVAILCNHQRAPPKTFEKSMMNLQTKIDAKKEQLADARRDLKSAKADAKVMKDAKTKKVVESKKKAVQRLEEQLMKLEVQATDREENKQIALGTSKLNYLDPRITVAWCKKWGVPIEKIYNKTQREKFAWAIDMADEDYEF
In words: Direct Top1 enzyme activity (DNA relaxation) assay. Type of assay: biochemical. The following applies: gel electrophoresis. How it is done: Different concentrations of the drug solution were prepared. The solvent was used as negative control group, and CPT (50 μM) was used as the positive control group. Each sample included 2 units of Top1 (TopoGEN, Buena Vista, CO, USA) and 250 ng super helical DNA (pHOT-1, TopoGEN, Buena Vista, CO, USA). The samples were incubated for 30 min at 37 °C, and then the reaction was stopped with SDS. After digestion with proteinase K (50 μg/mL, 60 min at 37 °C), samples were separated through electrophoresis (1% agarose gel). The electrophoresis was conducted at 180 V constant pressure for 20 min. The gel was immersed in the dye without EB for 30 min, and the images were collected by gel imaging system (Tanon-1600B, Shanghai, China).

The subject of another assay is Top1 in CL187 cells. The experiment in a line: Intracellular Top1 enzyme activity assay. Format: cell-based, Human. The settings on record: CL187 cells treated 6 h. How it is done:
CL187 cells were treated with different concentrations of drugs for 6 h. The supernatant was discarded, and the cells were collected. The extracts of cytoplasm, mitochondria, and nucleus were obtained by the same method as described in Section 2.4.7. The protein concentration of each extract was detected by BCA kit. Enzyme activity reaction was carried out by using 125 ng super helical DNA (pHOT-1) and cell extract. The protein concentration of the extract was guaranteed to be the same in each group. The mixture solution of the pHOT-1 and the cell extract was added into the reaction buffer and incubated for 30 min at 37 °C. The reaction was terminated with loading buffer. The agarose gel electrophoresis was performed, and the images were collected.

Assay [2] relates to Top1. In words: Western blot of Top1 protein in cells. Type of assay: cell-based, Human. The settings on record: 6 h. Here is the method: CL187 cells were treated with RE or PTE for 6 or 12 h, collected, and placed into lysis buffer (KeyGEN BioTECH, Nanjing, China). The total protein content in the cell lysates was measured using a BCA kit. Equivalent amount of total protein (30 μg) was loaded onto 10% SDS-PAGE gel. Electrophoresis was performed at 80 V for 25 min. After the sample went through concentrated gel, the voltage was adjusted to 120 V. Electrophoresis was stopped when the bromophenol blue band approached the bottom of the gel. After being transferred to PVDF membranes, the samples were incubated separately with 3 types of primary antibodies Top1, Tdp1, and P53 rabbit mAb (CST, Boston, MA, USA), followed by the incubation with secondary antibody goat anti-rabbit IgG (HRP)-conjugated (1:3000). ECL kit (New Cell and Molecular Biotech, Suzhou, China) was used for color development, and the images were collected by the gel imaging system (Tanon-5200, Shanghai, China).
In general terms: Immunoblotting shows a protein as a band on a membrane.

Regarding `COc1cc(/C=C/c2ccc(O)cc2)cc(OC)c1` [PTE, 3,5-dimethoxy-4′-hydroxy-trans-stilbene], the cell apoptotic proportion came to 26.80% in the assay with Tdp1-over CL187 cells (Tdp1-over CL187, 10 μM); 31.81% in the assay with Tdp1-over CL187 cells (Tdp1-over CL187, 20 μM); 32.87% in the assay with Tdp1-over CL187 cells (Tdp1-over CL187, 50 μM); 18.16% with siRNA-Tdp1 CL187 cells (siRNA-Tdp1 CL187, 10 μM); 20.92% in the assay with siRNA-Tdp1 CL187 cells (siRNA-Tdp1 CL187, 20 μM); 24.38% with siRNA-Tdp1 CL187 cells (siRNA-Tdp1 CL187, 50 μM). For the same compound, the cell apoptotic proportion in the assay with siRNA-Top1 CL187 cells (siRNA-Top1 CL187, 10 μM) worked out at 25.29%; in the assay on siRNA-Top1 CL187 cells (siRNA-Top1 CL187, 20 μM) it was 29.42%; in the assay on siRNA-Top1 CL187 cells (siRNA-Top1 CL187, 50 μM) it was 33.93%. Further, the “inhibition of Top1 enzyme activity (SC DNA relaxation)” value against Top1 [1] (30 min incubation, CPT at 50 uM) is reported as “had the ability to inhibit Top1 enzyme activity in a dose-dependent manner”. In addition, the “concentration exhibiting the same inhibitory effect on Top1 enzyme activity” value at Top1 [1] (relaxation of supercoiled pHOT-1 DNA, 30 min) came out at 20 µM. Further, the “concentration with the same inhibitory effect on intracellular Top1 enzyme activity” value in the assay on Top1 in CL187 cells (cell extracts + SC DNA) stood at 20 µM. The “Top1 enzyme activity in mitochondria” value with Top1 in CL187 cells (CPT at 50 μM) was “significantly inhibited”. Further, the Top1 protein content entry is “reduced in dese-dependent manner” in the assay on Top1 [2] (Tdp1-over CL187 cells); “significantly decreased” in the assay with Top1 [2] (siRNA-Tdp1 CL187 cells); “decreased in PTE treatment group, but neither in dese-dependent and significant manner” in the assay with Top1 [2] (wild-type CL187 cells).
